Assay results taken from patent US6525059B1, “Substituted pyrazoles as p38 kinase inhibitors” (G. D. Searle & Company, priority 1998, dated 2003).
Several values for one entry are separate records, joined by “and”; a condition that tells them apart may be missing. Identical values can stand only once. Counter-ions that a name gives are not always drawn. Like-named read-outs stand apart in the source and are kept apart here.

How the values were obtained:
[1] = target: T1, human GST-p38 kinase alpha (Homo sapiens, UniProt Q16539); assay: p38 kinase in vitro assay, second format, phosphorylation of EGFRP with 33P-ATP; format: biochemical
T1 construct: The coding region of the human p38a cDNA was obtained by PCR-amplification from RNA isolated from the human monocyte cell line THP.1; made in house; host or cells: E. coli DH10B
Method: A second assay format was also employed that is based on p38 kinase alpha induced phosphorylation of EGFRP (epidermal growth factor receptor peptide, a 21 mer) in the presence of ^33P-ATP. Compounds were tested in 10 fold serial dilutions over the range of 100 μM to 0.001 μM in 10% DMSO. Each concentration of inhibitor was tested in triplicate. Compounds were evaluated in 50 μl reaction volumes in the presence of 25 mM Hepes pH 7.5, 10 mM magnesium acetate, 4% glycerol, 0.4% bovine serum albumin, 0.4 mM DTT, 50 μM unlabeled ATP, 25 μg EGFRP (200 μM), and 0.05 uCi gamma ^33P-ATP. Reactions were initiated by addition of 0.09 μg of activated, purified human GST-p38 kinase alpha. Activation was carried out using GST-MKK6 (5:1, p38: MKK6) for one hour at 30° C. in the presence of 50 μM ATP. Following incubation for 60 minutes at room temperature, the reaction was stopped by addition of 150 μl of AG 1×8 resin in 900 mM sodium formate buffer, pH 3.0 (1 volume resin to 2 volumes buffer). The mixture was mixed three times with pipetting and the resin was allowed to settle. A total of 50 μl of clarified solution head volume was transferred from the reaction wells to Microlite-2 plates. 150 μl of Microscint 40 was then added to each well of the Microlite plate, and the plate was sealed, mixed, and counted.

human TNF = assay: TNF inhibition: human whole blood assay; format: cell-based; conditions: Homo sapiens, read-out: TNF Inhibition-Human Whole Blood Assay
Method: Human peripheral blood is obtained in heparinized tubes. A 190 μL aliquot of blood is placed in each well of a 96 well u-bottom plate. […] After one hour of incubation at 37° C., […] of lipopolysaccharide (Salmonella typhosa, Sigma) in phosphate buffered saline is added resulting in a final concentration of […]. After four to five hours of incubation at 37° C., the supernatants are harvested and assayed at 1:10 or 1:20 dilutions for human TNF using ELISA.

TNF-α [2] = assay: LPS stimulation of TNF production by U937 cells; format: cell-based, human; conditions: Homo sapiens, U-937, LPS-stimulated U937 cells; read-out: U937 IC50
Outline: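 PMA-differentiated human U937 cells (20 ng/ml PMA, 24 h, then 24-48 h rest) at 2 million cells/ml, 0.1% DMSO final, stimulated with E. coli LPS (100 ng/ml final) for 4 h at 37° C. TNF-α in medium measured by ELISA; IC50 in μM.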

human p38 kinase alpha = target: T2, human p38 kinase alpha (Homo sapiens, UniProt Q16539); assay: p38 kinase in vitro assay, phosphorylation of biotinylated PHAS-I with gamma 32P-ATP; format: biochemical; conditions: p38α in vitro, PHAS-I assay procedure; read-out: p38^1 IC50
T2 construct: The coding region of the human p38a cDNA was obtained by PCR-amplification from RNA isolated from the human monocyte cell line THP.1; GST (N); made in house; host or cells: E. coli DH10B
Outline: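 Radiometric filter-capture read-out: streptavidin plates trap biotin-PHAS-I labelled by activated (MKK6) human p38α from γ-32P-ATP. Buffer 25 mM HEPES pH 7.5, 10 mM magnesium acetate, 50 μM cold ATP; reactions 1 h or overnight at 30 °C; inhibitors 10-fold dilutions 100 to 0.001 μM, triplicates, 1% DMSO.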

TNF-α [3] = assay: Rat assay: LPS-challenged rats, serum TNF-α by ELISA; format: in vivo; conditions: Rattus norvegicus, po; for inhibition in vivo at 3 mg/kg: read-out: Rat LPS Assay % Inhibition; for inhibition in vivo at 10 mg/kg: Table 9, dose 10 mg/kg
Method: The efficacy of the novel compounds in blocking the production of TNF also was evaluated using a model based on rats challenged with LPS. Male Harlen Lewis rats [Sprague Dawley Co.] were used in this model. Each rat weighed approximately 300 g and was fasted overnight prior to testing. Compounds administration was typically by oral gavage (although intraperitoneal, subcutaneous and intravenous administration were also used in a few instances) 1 to 24 hours prior to the LPS challenge. Rats were administered 30 μg/kg LPS [salmonella typhosa, Sigma Co.] intravenously via the tail vein. Blood was collected via heart puncture 1 hour after the LPS challenge. Serum samples were stored at −20° C. until quantitative analysis of TNF-α by Enzyme Linked-Immuno-Sorbent Assay (“ELISA”) [Biosource]. Additional details of the assay are set forth in Perretti, M., et al., Br. J. Pharmacol. (1993), 110, 868-874, which is incorporated by reference in this application.
In vivo assessment of the ability of the compounds to inhibit LPS-stimulated TNF release in the rat is shown in the column identified as:
wherein in the dose is milligram per kilogram (mpk) administered by oral gavage and the predose time indicates the number of hours before LPS challenge when the compound is administered.

[4] = Table 8, 10% DMSO, read-out: p38α Kinase Assay IC50
[5] = Table 10, 10% DMSO, @ 1.0 hour, read-out: p38α Kinase Assay IC50
[6] = p38α in vitro, EGFRP assay procedure, read-out: p38^2 IC50
[7] = Table 9, 10% DMSO, read-out: p38α Kinase Assay IC50

T1 sequence (Q16539 whole entry): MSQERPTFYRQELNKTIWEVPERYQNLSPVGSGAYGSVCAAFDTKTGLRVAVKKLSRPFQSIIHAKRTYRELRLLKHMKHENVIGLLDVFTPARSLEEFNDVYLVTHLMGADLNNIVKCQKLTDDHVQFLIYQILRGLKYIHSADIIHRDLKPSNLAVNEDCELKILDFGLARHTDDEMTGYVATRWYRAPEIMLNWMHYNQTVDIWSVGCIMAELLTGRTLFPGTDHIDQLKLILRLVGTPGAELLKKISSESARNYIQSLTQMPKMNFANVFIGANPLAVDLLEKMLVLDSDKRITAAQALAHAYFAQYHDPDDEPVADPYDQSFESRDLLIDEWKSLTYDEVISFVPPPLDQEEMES
T2 sequence (Q16539 whole entry): as above

Q: `O=C(c1n[nH]c(-c2ccc(F)cc2)c1-c1ccncc1)N1CCNCC1` [A-314, Step 1, 1-[[5-(4-fluorophenyl)-4-(4-pyridinyl)-1H-pyrazol-3-yl]carbonyl]piperazine, monhydrate] was tested. Which IC50 [1, 4] did it give?
A: 370 nM

Q: With `O=C(O)CCC(=O)N1CCN(c2n[nH]c(-c3ccc(Cl)cc3)c2-c2ccncc2)CC1` [A-321 (dihydrate), 4-[5-(4-chlorophenyl)-4-(4-pyridinyl)-1H-pyrazol-3-yl]-γ-oxo-1-piperazinebutanoic acid, dihydrate] as the compound, how does the IC50 (human TNF) read?
A: > 25000 nM

Q: With `Cc1cccc(C(=O)Cc2ccncc2)c1` [A-389, Step 1, 1-tolyl-2-(4-pyridyl)ethanone] as the compound, how does the IC50 [1, 5] read?
A: 1720 nM

Q: `Clc1ccc(-c2n[nH]c(SC3CCNCC3)c2-c2ccncc2)cc1` [A-459 (salt)] was tested. Which IC50 [1, 5] did it give?
A: 100 nM

Q: With `Cc1cccc(-c2nn(C)cc2-c2ccnc(C)c2)c1` [Example A-235, 2-methyl-4-[1-methyl-3 (or 5)-(3-methylphenyl)-1H-pyrazol-4-yl]pyridine] as the compound, how does the IC50 [1, 6] read?
A: 104 nM

Q: What does the source list for `Cn1cc(-c2ccncc2)c(-c2cccc(C(F)(F)F)c2)n1` [Example A-238, 4-[1-methyl-3-[3-(trifluoromethyl)phenyl]-1H-pyrazol-4-yl]pyridine]?
A: IC50 (TNF-α [2]): 402 nM; IC50 [1, 6]: 177 nM

Q: Which IC50 [1, 6] does the source give for `Fc1ccc(-c2n[nH]cc2-c2ccnc(/C=C/c3ccccc3)c2)cc1` [Example A-244, (E)-4-[3-(4-fluorophenyl)-1H-pyrazol-4-yl]-2-(2-phenylethenyl)pyridine] here?
A: 99 nM

Q: `COc1ccc(CNc2cc(-c3c[nH]nc3-c3ccc(Cl)cc3)ccn2)cc1` [Example A-246, 4-[3-(4-chlorophenyl)-1H-pyrazol-4-yl]-N-[(4-methoxy-phenyl)methyl]-2-pyridinamine] was tested. Which IC50 (TNF-α [2]) did it give?
A: 495 nM

Q: And the IC50 [1, 6]?
A: 592 nM

Q: And the IC50 (human p38 kinase alpha)?
A: 403 nM

Q: `Clc1ccc(-c2n[nH]cc2-c2ccnc(NCc3ccccn3)c2)cc1` [Example A-247, N-[4-[3-(4-chlorophenyl)-1H-pyrazol-4-yl]-2-pyridinyl]-2-pyridinemethanamine] was tested. Which IC50 (TNF-α [2]) did it give?
A: 166 nM

Q: And the IC50 [1, 6]?
A: < 10 nM

Q: Which IC50 [1, 6] does the source give for `Ic1ccc(-c2n[nH]cc2-c2ccncc2)cc1` [Example A-250, 4-[3-(4-iodophenyl)-1H-pyrazol-4-yl]pyridine] here?
A: 2870 nM

Q: How did the IC50 (TNF-α [2]) turn out when `Fc1ccc(-c2n[nH]cc2-c2ccnc(NCc3cccc(F)c3)c2)cc1` [Example A-254, N-[(3-fluorophenyl)methyl]-4-[3-(4-fluorophenyl)-1H-pyrazol-4-yl]-2-pyridinamine] was run?
A: 141 nM

Q: What about the IC50 [1, 6] of the same compound?
A: 81 nM

Q: Which results are given for `Cn1cc(-c2ccnc(F)c2)c(-c2ccc(F)cc2)n1` [Example A-256, 2-fluoro-4-[3-(4-fluorophenyl)-1-methyl-1H-pyrazol-4-yl]pyridine]?
A: IC50 (TNF-α [2]): 456 nM; IC50 [1, 6]: 813 nM

Q: What does the source list for `Fc1cc(-c2c[nH]nc2-c2ccc(F)c(F)c2)ccn1` [Example A-257, 4-[3-(3,4-difluorophenyl)-1H-pyrazol-4-yl]-2-fluoropyridine]?
A: IC50 (TNF-α [2]): 517 nM; IC50 [1, 6]: < 10 nM; IC50 (human p38 kinase alpha): 1080 nM

Q: `CS(=O)(=O)N1CCN(c2n[nH]c(-c3ccc(Cl)cc3)c2-c2ccncc2)CC1` [Example A-320, 1-[5-(4-chlorophenyl)-4-(4-pyridinyl)-1H-pyrazol-3-yl]-4-(methylsulfonyl)piperazine, monohydrate] was tested. Which inhibition in vivo at 3 mg/kg (TNF-α [3]; Table 8, dose 3.0 mg/kg) did it give?
A: 1%

Q: What about the IC50 [1, 4] of the same compound?
A: 50 nM and 150 nM

Q: How did the inhibition in vivo at 3 mg/kg (TNF-α [3]; Table 8, dose 3.0 mg/kg) turn out when `C#CCNc1nccc(-c2cn[nH]c2-c2ccc(F)cc2)n1` [Example A-324, 4-[3-(4-fluorophenyl)-1H-pyazol-4-yl]-N-2-propynyl-2-pyrimidinamine] was run?
A: 44%

Q: What about the IC50 [1, 4] of the same compound?
A: 80 nM

Q: For `CCOC(=O)N1CCC(Nc2n[nH]c(-c3ccc(Cl)cc3)c2-c2ccncc2)CC1` [Example A-331, ethyl 4-[[5-(4-chlorophenyl)-4-(4-pyridinyl)-1H-pyrazol-3-yl]amino]-1-piperidinecarboxylate], which inhibition in vivo at 20 mg/kg (TNF-α [3]; Table 8, dose 20.0 mg/kg) is on record?
A: 13%

Q: What about the IC50 [1, 4] of the same compound?
A: 640 nM

Q: `COc1ccccc1N1CCN(c2n[nH]c(-c3ccc(Cl)cc3)c2-c2ccncc2)CC1` [Example A-336, 1-[5-(4-chlorophenyl)-4-(4-pyridinyl)-1H-pyrazol-3-yl]-4-(2-methoxyphenyl)piperazine] was tested. Which IC50 [1, 4] did it give?
A: 1160 nM

Q: For `CC1CN(c2[nH]nc(-c3ccc(Cl)cc3)c2-c2ccncc2)CCN1` (stereo not drawn) [Example A-343, 1-[5-(4-chlorophenyl)-4-(4-pyridinyl)-1H-pyrazol-3-yl]-3-methylpiperazine], which inhibition in vivo at 20 mg/kg (TNF-α [3]; Table 8, dose 20.0 mg/kg) is on record?
A: 96%

Q: What about the IC50 [1, 4] of the same compound?
A: 16 nM

Q: Which results are given for `Fc1ccc(-c2n[nH]cc2-c2ccnc(NCCN3CCCCC3)c2)cc1` [Example A-375, 4-[3-(4-fluorophenyl)-1H-pyrazol-4-yl]-N-[2-(1-piperidinyl)ethyl]-2-pyridinamine]?
A: inhibition in vivo at 20 mg/kg (TNF-α [3]; Table 9, dose 20 mg/kg): 43%; IC50 [1, 7]: 2300 nM

Q: Which inhibition in vivo at 10 mg/kg (TNF-α [3]) does the source give for `O=C1CCN(c2n[nH]c(-c3ccc(F)cc3)c2-c2ccncc2)CC1` [Example A-378, 1-[5-(4-fluorophenyl)-4-(4-pyridinyl)-1H-pyrazol-3-yl]-4-piperidinone] here?
A: 73%

Q: And the IC50 [1, 7]?
A: 6200 nM

Q: Which results are given for `OC1CCN(c2[nH]nc(-c3ccc(F)cc3)c2-c2ccncc2)CC1` [Example A-379, 1-[5-(4-fluorophenyl)-4-(4-pyridinyl)-1H-pyrazol-3-yl]-4-piperidinol]?
A: inhibition in vivo at 10 mg/kg (TNF-α [3]): 61%; IC50 [1, 7]: 190 nM

Q: With `Fc1ccc(-c2n[nH]c(N3CCC4(CC3)OCCO4)c2-c2ccncc2)cc1` [Example A-380, 8-[5-(4-fluorophenyl)-4-(4-pyridinyl)-1H-pyrazol-3-yl]-1,4-dioxa-8-azaspiro[4.5]decane] as the compound, how does the inhibition in vivo at 3 mg/kg (TNF-α [3]; Table 9, dose 3 mg/kg) read?
A: 33%

Q: What about the inhibition in vivo at 10 mg/kg (TNF-α [3]) of the same compound?
A: 62%

Q: And the inhibition in vivo at 30 mg/kg (TNF-α [3]; Table 9, dose 30 mg/kg)?
A: 85%

Q: What about the IC50 [1, 7] of the same compound?
A: 850 nM

Q: Which IC50 [1, 7] does the source give for `C=CCn1cc(-c2ccncc2)c(-c2ccc(F)cc2)n1` [Example A-385, 4-[3-(4-fluorophenyl)-1-(2-propenyl)-1H-pyrazol-4-yl]pyridine, monohydrochloride] here?
A: 180 nM and 1250 nM

Q: Which inhibition in vivo at 20 mg/kg (TNF-α [3]; Table 9, dose 20 mg/kg) does the source give for `O=C1CCC(Nc2cc(-c3c[nH]nc3-c3ccc(F)cc3)ccn2)CC1` [Example A-387, 4-[[4-[3-(4-fluorophenyl)-1H-pyrazol-4-yl]-2-pyridinyl]amino]cyclohexanone] here?
A: 83%

Q: And the IC50 [1, 7]?
A: 5 nM

Q: With `O=C(C(=C1SCS1)c1ccncc1)c1ccc(OC(F)(F)F)cc1` [Example A-395] as the compound, how does the IC50 [1, 5] read?
A: > 100000 nM

Q: With `O=C(C(=C(SCC1OCCO1)SCC1OCCO1)c1ccncc1)c1ccc(F)cc1` [Example A-449] as the compound, how does the IC50 [1, 5] read?
A: 59000 nM

Q: With `Sc1[nH]nc(-c2ccc(Cl)cc2)c1-c1ccncc1` [Example A-455] as the compound, how does the IC50 [1, 5] read?
A: 12900 nM

Q: With `O=C(O)CSc1[nH]nc(-c2ccc(Cl)cc2)c1-c1ccncc1` [Example A-461] as the compound, how does the IC50 [1, 5] read?
A: 30600 nM

Q: With `O=C(O)C(Cc1cnc[nH]1)Sc1[nH]nc(-c2ccc(Cl)cc2)c1-c1ccncc1` (stereo not drawn) [Example A-471] as the compound, how does the IC50 [1, 5] read?
A: 4920 nM
